From US12559696B2, “Amine containing aqueous fluids and method of producing same” (Illinois Tool Works Inc., priority 2023, dated 2026)

Tests used:
[1] = test system: microbial growth; assay: Biological testing according to ASTM E2275; type: cell-based; settings: 3-amino-4-octanol in solution at 6 total weight percent at higher
Text: The solutions of Examples 1 and 3 and Comparative Examples A and B are subjected to biological testing according to ASTM E2275.

[2] = standard temperature and pressure (STP); cited from earlier work

What does the source list for CCCCC(O)C(N)CC (centres unmarked) [3-amino-4-octanol]?
resistance to microbial growth [1]: enhanced resistant to microbial growth; solubility of 3-amino-4-octanol in water [2]: about 4.5 percent by weight
